According to patent US9963703B2, “Compositions and methods for treating pancreatic cancer” (Autotelic LLC, priority 2016, dated 2018):
In the oligonucleotide strings, read from the 5' end, every base follows the letter of its sugar. An asterisk marks phosphorothioate; unmarked linkages are phosphodiester. Other units and linkages are bracketed, terminal groups are in braces. A string of capitals states the bases alone. d = 2'-deoxy (DNA)

Test system: Patients With Advanced Tumors Known to Overproduce TGFβ2
Experiment: Phase I/II dose escalation study P-001, safety (MTD, DLT, adverse events)
Assay type: in vivo, human
Experimental: Over-expression of transforming growth factor-beta 2 (TGF-β2) is associated with poor prognosis and plays a key role for malignant progression of various tumors by inducing proliferation, metastasis, angiogenesis and immunosuppression. P-001 trial of trabedersen-Safety and Tolerability of AP 12009 (trabedersen), Administered I.V. in Patients With Advanced Tumors Known to Overproduce TGFβ2, was evaluated to determine if treatment with trabedersen primed the tumors to subsequent chemotherapy.
In the instant study, the primary objective was to determine the Maximum Tolerated Dose (MTD) and the Dose Limited Toxicity (DLT) of two cycles of trabedersen administered intravenously (i.v.) for either 7 days every other week (i.e. 7 days on/7 days off) or for 4 days every other week (4 days on/10 days off). The secondary objective included assessment of antitumor activity of trabedersen administered intravenously for either 7 days every other week (i.e. 7 days on/7 days off) or for 4 days every other week (4 days on/10 days off).
The escalation scheme of this study aimed to determinate the MTD of two cycles of trabedersen (so called ‘core study period’) administered as a continuous i.v. infusion for 7 days every other week (7-days-on/7-days-off) or for 4 days every other week (4-days-on/10-days-off).
In general, it was planned to enroll a cohort of at least 3 evaluable patients per treatment group. For each cohort, the safety data obtained until end of the core study period (period for DLT-assessment, Cycle 1 and Cycle 2) were assessed in an interim analysis and evaluated by a Data and Safety Monitoring Board (DSMB). […] If 2 of these 3 patients experienced a DLT, the number of evaluable patients for the subsequent treatment group was increased to 6 for further evaluation of toxicity. Patients who were withdrawn from the study due to adverse events (AEs) attributed to DLT by the treating clinician, were not replaced but were used to determine the MTD and to evaluate the safety of the study drug. If patients were withdrawn due to other reasons, they were replaced until the treatment group was complete.
The MTD was determined according to the following procedure: If 2 out of 3 patients of 1 cohort experienced a DLT, 3 more patients were enrolled in the same treatment group. If at least 1 of these additional 3 patients also met the toxicity criteria for a DLT, the MTD for two cycles was determined; otherwise the dose escalation was continued upon agreement with the DSMB. MTD for two cycles was then defined as the dose at which no more than 2 out of 3, or 2 out of 6 patients of the same treatment group experienced a DLT. This procedure was followed until the MTD was reached.
The safety population comprised of 61 patients, representing all patients for whom at least once a trabedersen infusion was started. According to the protocol, the MTD was determined according to the following procedure: if […] out of 3 patients of one cohort experience dose-limiting toxicity, 3 more patients were enrolled in the same treatment group. If at least 1 more patient of this second cohort met the toxicity criteria, MTD for two cycles has been determined (otherwise escalation was continued). MTD for two cycles was then defined as the dose at which no more than 2 out of 3 or 2 out of 6 patients of the same treatment group experienced DLT. […] In the case that 2 patients of the first cohort experienced DLTs that clearly indicated attainment of the MTD, the second cohort could also be omitted. The described procedure was pursued until the MTD is reached.

[1] = 240 mg/m^2/day, 7-days-on and 7-days-off schedule
[2] = 4-days-on and 10-days-off schedule
[3] = 4-days-on, 10-days off schedule (N = 44)
[4] = 7-days-on and 7-days-off schedule
[5] = 7-days-on, 7-days off schedule (N = 17)

In the case of “trabedersen: TGF-beta2 specific phosphorothioate antisense oligodeoxynucleotide with the sequence 5′-CGGCATGTCTATTTTGTA-3′ (SEQ ID No: 1) (antisense dC*dG*dG*dC*dA*dT*dG*dT*dC*dT*dA*dT*dT*dT*dT*dG*dT*dA)”, the dose-limiting toxicity observed (140 mg/m^2/day, 4-days-on and 10-days-off schedule, one patient) is reported as “Grade 3 upper gastrointestinal hemorrhage”, the “DLT: cases of Grade 3 maculopapular rash” value [1] is reported as 1 and the “DLT: cases of Grade 3 thrombocytopenia” value [1] is reported as 2. For the same substance, the “number of patients who experienced a DLT” value [1] was 3, the “patients with TEAEs that led to treatment discontinuation, %” value (“patients with TEAEs that led … %” for short) [2] was 15.9% and the “patients with TEAEs that led to treatment discontinuation, number” value (from here on “patients with TEAEs that led … number”) [2] was 7. For the same substance, the MTD (4-days-on and 10-days-off schedule, no MTD established, highest dose tested) was > 330 mg/m^2/day, the “Any SAE: % of patients with SAE” value [3] was 40.9% and the “Any SAE: No. of SAEs” value [3] was 28. The “Any SAE: No. of patients with SAE” value [3] was 18, the “Ascites: No. of patients with SAE” value [3] was 0 and the “Cancer Pain: % of patients with SAE” value [3] was 4.5%. For the same substance, the “Cancer Pain: No. of SAEs” value [3] was 2, the “Cancer Pain: No. of patients with SAE” value [3] was 2 and the “Catheter related Infection: % of patients with SAE” value (shortened to “Catheter related Infection: %”) [3] was 2.3%. For the same substance, the “Catheter related Infection: No. of SAEs” value [3] was 1, the “Catheter related Infection: No. of patients with SAE” value [3] was 1 and the “Cholangitis: % of patients with SAE” value [3] was 6.8%. For the same substance, the “Cholangitis: No. of SAEs” value [3] was 3, the “Cholangitis: No. of patients with SAE” value [3] was 3 and the “Cholestasis: % of patients with SAE” value [3] was 2.3%. For the same substance, the “Cholestasis: No. of SAEs” value [3] was 1, the “Cholestasis: No. of patients with SAE” value [3] was 1 and the “GI hemorrhage: % of patients with SAE” value [3] was 2.3%. The “GI hemorrhage: No. of SAEs” value [3] was 2, the “GI hemorrhage: No. of patients with SAE” value [3] was 1 and the “Pneumonia: No. of patients with SAE” value [3] was 0. The “Upper GI hemorrhage: % of patients with SAE” value (“Upper GI hemorrhage: %” for short) [3] was 2.3%, the “Upper GI hemorrhage: No. of SAEs” value [3] was 1 and the “Upper GI hemorrhage: No. of patients with SAE” value [3] was 1. For the same substance, the MTD [4] was 160 mg/m^2/day, the “patients with TEAEs that led … %” value [4] was 41.2% and the “patients with TEAEs that led … number” value [4] was 7. The “Any SAE: % of patients with SAE” value [5] was 70.6%, the “Any SAE: No. of SAEs” value [5] was 28 and the “Any SAE: No. of patients with SAE” value [5] was 12. The “Ascites: % of patients with SAE” value [5] was 17.6%, the “Ascites: No. of SAEs” value [5] was 3 and the “Ascites: No. of patients with SAE” value [5] was 3. The “Cancer Pain: No. of patients with SAE” value [5] was 0, the “Catheter related Infection: %” value [5] was 11.8% and the “Catheter related Infection: No. of SAEs” value [5] was 2. The “Catheter related Infection: No. of patients with SAE” value [5] was 2, the “Cholangitis: % of patients with SAE” value [5] was 5.9% and the “Cholangitis: No. of SAEs” value [5] was 1. The “Cholangitis: No. of patients with SAE” value [5] was 1, the “Cholestasis: % of patients with SAE” value [5] was 5.9% and the “Cholestasis: No. of SAEs” value [5] was 1. For the same substance, the “Cholestasis: No. of patients with SAE” value [5] was 1, the “GI hemorrhage: % of patients with SAE” value [5] was 11.8% and the “GI hemorrhage: No. of SAEs” value [5] was 3. The “GI hemorrhage: No. of patients with SAE” value [5] was 2, the “Pneumonia: % of patients with SAE” value [5] was 17.6% and the “Pneumonia: No. of SAEs” value [5] was 3. The “Pneumonia: No. of patients with SAE” value [5] was 3, the “Upper GI hemorrhage: %” value [5] was 5.9% and the “Upper GI hemorrhage: No. of SAEs” value [5] was 1. The “Upper GI hemorrhage: No. of patients with SAE” value [5] was 1, the MTD (4 days on and days off regimen (N=27), not reached at highest dose) was > 330 mg/m^2/d and the MTD (7 days on and 7 days off regimen (N=11)) was 160 mg/m^2/d. The “Any SAE: % of patients with SAE” value (Total (N = 61)) was 49.2%, the “Any SAE: No. of SAEs” value (Total (N = 61)) was 56 and the “Any SAE: No. of patients with SAE” value (Total (N = 61)) was 30. For the same substance, the “Ascites: % of patients with SAE” value (Total (N = 61)) was 4.9%, the “Ascites: No. of SAEs” value (Total (N = 61)) was 3 and the “Ascites: No. of patients with SAE” value (Total (N = 61)) was 3. For the same substance, the “Cancer Pain: % of patients with SAE” value (Total (N = 61)) was 3.3%, the “Cancer Pain: No. of SAEs” value (Total (N = 61)) was 2 and the “Cancer Pain: No. of patients with SAE” value (Total (N = 61)) was 2. For the same substance, the “Catheter related Infection: %” value (Total (N = 61)) was 4.9%, the “Catheter related Infection: No. of SAEs” value (Total (N = 61)) was 3 and the “Catheter related Infection: No. of patients with SAE” value (Total (N = 61)) was 3. For the same substance, the “Cholangitis: % of patients with SAE” value (Total (N = 61)) was 6.6%, the “Cholangitis: No. of SAEs” value (Total (N = 61)) was 4 and the “Cholangitis: No. of patients with SAE” value (Total (N = 61)) was 4. For the same substance, the “Cholestasis: % of patients with SAE” value (Total (N = 61)) was 3.3%, the “Cholestasis: No. of SAEs” value (Total (N = 61)) was 2 and the “Cholestasis: No. of patients with SAE” value (Total (N = 61)) was 2. The “GI hemorrhage: % of patients with SAE” value (Total (N = 61)) was 4.9%, the “GI hemorrhage: No. of SAEs” value (Total (N = 61)) was 3 and the “GI hemorrhage: No. of patients with SAE” value (Total (N = 61)) was 3. For the same substance, the “Pneumonia: % of patients with SAE” value (Total (N = 61)) was 4.9%, the “Pneumonia: No. of SAEs” value (Total (N = 61)) was 3 and the “Pneumonia: No. of patients with SAE” value (Total (N = 61)) was 3. For the same substance, the “Upper GI hemorrhage: %” value (Total (N = 61)) was 3.3%, the “Upper GI hemorrhage: No. of SAEs” value (Total (N = 61)) was 2 and the “Upper GI hemorrhage: No. of patients with SAE” value (Total (N = 61)) was 2. For the same substance, the “number of patients for whom a DLT was proclaimed” value (all cohorts, 2 pancreatic carcinoma, 2 colorectal cancer) was 4, the “patients with TEAEs that led … %” value (all patients) was 23.0% and the “patients with TEAEs that led … number” value (all patients) was 14. The “total number of TEAEs that led to treatment discontinuation” value (all patients) was 23, the “patients with TEAEs that led … %” value (colorectal cancer) was 40.0% and the “patients with TEAEs that led … number” value (colorectal cancer) was 2. The “daily dose of MTD” value (initial 7-days-on and 7-days-off schedule) was “approx. 4 mg/kg/day”, the “patients with TEAEs that led … %” value (melanoma) was 15.8% and the “patients with TEAEs that led … number” value (melanoma) was 3. For the same substance, the “patients with TEAEs that led … %” value (pancreatic cancer) was 24.3% and the “patients with TEAEs that led … number” value (pancreatic cancer) was 9.
